Experimental data from patent US12624034B2, “Non-covalent modifiers of AKT1 and uses thereof” (Terremoto Biosciences, Inc., priority 2023, dated 2026).
Like-named read-outs stand apart in the source and are kept apart here.

What was measured:
[1] = target: T1, AKT1 WT (Homo sapiens, UniProt P31749); assay: Live cell AKT1 WT target engagement by NanoBRET competitive probe displacement in HEK293 cells; format: binding; settings: 2 h at 37° C., read-out: AKT1 WT IC50
T1 construct: expressed in transfected cells; host or cells: HEK293

[2] = target: T2, AKT2 (Homo sapiens, UniProt P31751); assay: Live cell AKT2 target engagement by NanoBRET competitive probe displacement in HEK293 cells; format: binding; settings: 2 h at 37° C., read-out: AKT2 IC50
T2 construct: expressed in transfected cells; host or cells: HEK293

[3] = NanoBRET live cell target engagement, HEK293 cells
[4] = NanoBRET competitive probe displacement, live HEK293 cells

T1 sequence (P31749 whole entry): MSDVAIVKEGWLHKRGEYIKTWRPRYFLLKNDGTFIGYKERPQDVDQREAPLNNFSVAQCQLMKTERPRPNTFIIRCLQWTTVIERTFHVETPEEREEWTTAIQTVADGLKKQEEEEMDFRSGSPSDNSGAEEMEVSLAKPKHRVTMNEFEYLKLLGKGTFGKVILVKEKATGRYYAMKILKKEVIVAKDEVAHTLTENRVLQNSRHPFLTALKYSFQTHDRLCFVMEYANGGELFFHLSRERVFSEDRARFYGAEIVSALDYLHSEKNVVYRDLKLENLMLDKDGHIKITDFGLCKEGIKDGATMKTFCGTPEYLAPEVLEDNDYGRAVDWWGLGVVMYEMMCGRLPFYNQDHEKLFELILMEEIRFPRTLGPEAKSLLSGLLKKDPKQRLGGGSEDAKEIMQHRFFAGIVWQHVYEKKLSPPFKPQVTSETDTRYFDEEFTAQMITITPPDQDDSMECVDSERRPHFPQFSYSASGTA
T2 sequence (P31751 whole entry): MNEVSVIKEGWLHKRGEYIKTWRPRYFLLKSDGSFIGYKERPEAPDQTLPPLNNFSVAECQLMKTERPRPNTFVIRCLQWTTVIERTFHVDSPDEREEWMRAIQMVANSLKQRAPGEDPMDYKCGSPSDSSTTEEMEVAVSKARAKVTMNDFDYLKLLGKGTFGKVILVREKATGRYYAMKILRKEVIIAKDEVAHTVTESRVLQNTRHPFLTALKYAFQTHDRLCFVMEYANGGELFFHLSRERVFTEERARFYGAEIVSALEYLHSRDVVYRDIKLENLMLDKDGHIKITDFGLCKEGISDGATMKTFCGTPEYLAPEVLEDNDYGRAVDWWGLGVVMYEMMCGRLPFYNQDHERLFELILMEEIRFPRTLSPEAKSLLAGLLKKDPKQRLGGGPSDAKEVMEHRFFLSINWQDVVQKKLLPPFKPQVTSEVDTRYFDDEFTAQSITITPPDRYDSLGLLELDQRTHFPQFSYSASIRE

IC50 [1, 3] [nM] | IC50 [2, 3] [nM] | IC50 [1, 4] [nM] | IC50 [2, 4] [nM] | Compound
8.65 | 82.2 |  |  | Nc1ncccc1-c1nc2ccc(-n3cccn3)nc2n1-c1ccc2c(c1)CC[C@@H]2NC(=O)c1ccc(F)c(Cl)c1 [Compound 337]
 |  | 27 | 1080 | Nc1ncccc1-c1nc2ccc(-n3cccn3)nc2n1-c1ccc2c(c1)CC[C@@H]2NC1CCc2cnccc2C1 (single isomer, unassigned) [Compound 463]
 |  | 19.2 | 167 | Nc1ncccc1-c1nc2ccc(-n3cccn3)nc2n1-c1ccc2c(c1)CC[C@@H]2NC1CCc2cnccc2C1 (some centres unmarked) [Compound 464]
 |  | 6.63 | 131 | Nc1ncccc1-c1nc2ccc(-n3cccn3)nc2n1-c1ccc2c(c1)CC[C@@H]2NC(=O)c1cc(C(F)F)ns1 [Compound 452]
 |  | 105 | > 10000 | Nc1ncccc1-c1nc2ccc(C#CC3CC3)nc2n1-c1ccc2c(c1)CC(F)[C@@H]2NC1CCN(C(=O)C2CC2)CC1 (some centres unmarked) [Compound 521]
 |  | 190 | 3530 | Nc1ncccc1-c1nc2ccc(-n3cccn3)nc2n1-c1ccc2c(c1)CC[C@@H]2NC1CCN(C(=O)C2CC2(F)F)CC1 (some centres unmarked) [Compound 433]
 |  | 8.72 | 458 | Nc1ncccc1-c1nc2ccc(-n3ccc(Oc4cccnc4)n3)nc2n1-c1ccc2c(c1)CC[C@@H]2NC1CCN(C(=O)C2CC2)CC1 [Compound 568]
 |  | 13.1 | 296 | COCCOc1ccn(-c2ccc3nc(-c4cccnc4N)n(-c4ccc5c(c4)CC[C@@H]5NC4CCN(c5ccn(C)n5)CC4)c3n2)n1 [Compound 551]
23.7 | 824 |  |  | Nc1ncccc1-c1nc2ccc(-n3ccc(F)n3)nc2n1-c1ccc2c(c1)CC[C@@H]2NC(=O)c1ccc(F)c(F)c1 [Compound 347]
 |  | 9.4 | 197 | Nc1ncccc1-c1nc2ccc(-n3cccn3)nc2n1-c1ccc2c(c1)CC[C@@H]2NC1CCc2ccncc21 (single isomer, unassigned) [Example 495, (S*)—N—((S)-5-(2-(2-aminopyridin-3-yl)-5-(1H-pyrazol-1-yl)-3H-imidazo[4,5-b]pyridin-3-yl)-2,3-dihydro-1H-inden-1-yl)-6,7-dihydro-5H-cyclopenta[c]pyridin-7-amine]
14.7 | 143 |  |  | N#Cc1cc(-n2ccc(F)n2)nc2c1nc(-c1cccnc1N)n2-c1ccc2c(c1)CC[C@@H]2NC(=O)c1ccc(C(F)F)nc1 [Compound 329]
 |  | 2.28 | 84.4 | COC1CCN(c2ccn(-c3ccc4nc(-c5cccnc5N)n(-c5ccc6c(c5)CC[C@@H]6NC5CCN(C(=O)C6CC6)CC5)c4n3)n2)CC1 [Compound 564]
 |  | 225 | 2370 | Nc1ncccc1-c1nc2ccc(-n3cccn3)nc2n1-c1ccc2c(c1)CC[C@@H]2NC1CCN(C(=O)C2CC2)C1 (some centres unmarked) [Compound 462]
 |  | 79.7 | 1200 | Nc1ncccc1-c1nc2ccc(-n3cccn3)nc2n1-c1ccc2c(c1)CC[C@@H]2NC1CC2(CCN(c3ccccn3)CC2)C1 [Compound 449]
 |  | 25.9 | 1570 | Cc1ccc(C(=O)N[C@H]2CCc3cc(-n4c(-c5cccnc5N)nc5cc(F)c(-n6nccn6)nc54)ccc32)cn1 [Compound 466]
 |  | 130 | 2780 | Nc1ncccc1-c1nc2ccc(-n3cccn3)nc2n1-c1ccc2c(c1)CC[C@@H]2NC1CCN(C(=O)C(F)F)CC1 [Compound 475]
 |  | > 1000 | 7230 | Nc1ncccc1-c1nc2ccc(-n3nccn3)nc2n1-c1ccc2c(c1)CC(F)[C@@H]2NC1CCN(C(=O)C2CC2)CC1 (single isomer, unassigned) [Compound 533]
 |  | 67.9 | 2080 | Nc1ncccc1-c1nc2ccc(-n3cccn3)nc2n1-c1ccc2c(c1)CC[C@@H]2NC1CCN(C(=O)C2CCC2)CC1 [Compound 422]
 |  | 124 | 1330 | Nc1ncccc1-c1nc2ccc(-c3cnccn3)nc2n1-c1ccc2c(c1)CC[C@@H]2NC1CCN(C(=O)C2CC2)CC1 [Compound 556]

The next lines start with the compound.

Compound | IC50 [1, 3] [nM] | IC50 [2, 3] [nM] | IC50 [1, 4] [nM] | IC50 [2, 4] [nM]
Nc1ncccc1-c1nc2ccc(-n3cccn3)nc2n1-c1ccc2c(c1)CC[C@@H]2n1cc(-c2ccncc2)nn1 [Compound 198] | 9.5 | 113 |  | 
Nc1ncccc1-c1nc2ccc(-n3cccn3)nc2n1-c1ccc2c(c1)CC[C@@H]2NC(=O)c1cccnc1C#Cc1ccccc1 [Compound 210] | 95.8 | 596 |  | 
Cn1cc(Cc2nncn2[C@H]2CCc3cc(-n4c(-c5cccnc5N)nc5ccc(-n6cccn6)nc54)ccc32)cn1 [Compound 228] | 586 | 2030 |  | 
Cc1ncccc1OCC1CCc2cc(-n3c(-c4cccnc4N)nc4ccc(-n5cccn5)nc43)ccc21 (single isomer, unassigned) [Compound 252, (*)-3-(3-(1-(((2-methylpyridin-3-yl)oxy)methyl)-2,3-dihydro-1H-inden-5-yl)-5-(1H-pyrazol-1-yl)-3H-imidazo[4,5-b]pyridin-2-yl)pyridin-2-amine] | 599 | 2610 |  | 
Nc1ncccc1-c1nc2ccc(-n3cccn3)nc2n1-c1ccc2c(c1)CC[C@@H]2n1cc(C(F)F)nn1 [Compound 326] | 18.2 | 1320 |  | 
Nc1ncccc1-c1nc2c(F)cc(-n3cccn3)nc2n1-c1ccc2c(c1)CC[C@@H]2NC(=O)c1ccc(C(F)F)nc1 [Compound 165, (S)—N-(5-(2-(2-aminopyridin-3-yl)-7-fluoro-5-(1H-pyrazol-1-yl)-3H-imidazo[4,5-b]pyridin-3-yl)-2,3-dihydro-1H-inden-1-yl)-6-(difluoromethyl)nicotinamide] | 11.6 | 100 |  | 
Cc1cc(C(=O)N[C@H]2CCc3cc(-n4c(-c5cccnc5N)nc5ccc(-n6cccn6)nc54)ccc32)nn1C [Compound 126] | 721 | 532 |  | 
Nc1ncccc1-c1nc2ccc(-n3cccn3)nc2n1-c1ccc2c(c1)CC[C@@H]2NC(=O)c1ccc2ccnn2c1 [Compound 290] | 3.83 | 18.9 |  | 
Nc1ncccc1-c1nc2ccc(-n3nccn3)nc2n1-c1ccc2c(c1)CC[C@@H]2NC(=O)c1cnc(C(F)F)c(F)c1 [Compound 121] | 36.6 | 1590 |  | 
COc1cc(C(=O)N[C@H]2CCc3cc(-n4c(-c5cccnc5N)nc5ccc(-n6cccn6)nc54)ccc32)ccc1O [Compound 260] | 7.55 | 164 |  | 
Cn1ccc(C#Cc2cc(C(=O)N[C@H]3CCc4cc(-n5c(-c6cccnc6N)nc6ccc(-n7cccn7)nc65)ccc43)ccn2)n1 [Compound 182] | 11.5 | 219 |  | 
Nc1ncccc1-c1nc2ccc(-n3cccn3)nc2n1-c1ccc2c(c1)CC[C@@H]2NC(=O)c1ccnc(OC(F)F)c1 [Compound 202] | 5.59 | 29.4 |  | 
Nc1ncccc1-c1nc2ccc(-n3cccn3)nc2n1-c1ccc2c(c1)CC[C@@H]2NCc1ccnc(OC(F)(F)F)c1 [Compound 305] | 32.1 | 1160 |  | 
COc1cc(-n2cccn2)nc2c1nc(-c1cccnc1N)n2-c1ccc2c(c1)CC[C@@H]2NC(=O)c1cccnc1C [Compound 124] | 13.9 | 54.8 |  | 
Nc1ncccc1-c1nc2c(C(F)F)cc(-n3cccn3)nc2n1-c1ccc2c(c1)CC[C@@H]2NC(=O)c1ccc(C(F)F)nc1 [Compound 177, (S)—N-(5-(2-(2-aminopyridin-3-yl)-7-(difluoromethyl)-5-(1H-pyrazol-1-yl)-3H-imidazo[4,5-b]pyridin-3-yl)-2,3-dihydro-1H-inden-1-yl)-6-(difluoromethyl)nicotinamide] | 10.6 | 47.2 |  | 
Cc1ncccc1CN[C@H]1CCc2cc(-n3c(-c4cccnc4N)nc4ccc(-n5cccn5)nc43)ccc21 [Compound 140] | 31.5 | 576 |  | 
Cc1cn(C)nc1C(=O)N[C@H]1CCc2cc(-n3c(-c4cccnc4N)nc4ccc(-n5cccn5)nc43)ccc21 [Compound 172] | 203 | 2390 |  | 
Nc1ncccc1-c1nc2ccc(-n3cccn3)nc2n1-c1ccc2c(c1)CC[C@@H]2NC(=O)c1ccn2nccc2n1 [Compound 306] | 34.5 | 132 |  | 
Cc1ccc(C(=O)N[C@H]2CCc3cc(-n4c(-c5cccnc5N)nc5ccc(-c6nc(C)co6)nc54)ccc32)cn1 [Compound 267] | 14.6 | 286 |  | 
Nc1ncccc1-c1nc2ccc(-n3cccn3)nc2n1-c1ccc2c(c1)CC[C@@H]2NC(=O)c1ccn(C2CC2)n1 [Compound 215] | 21.5 | 381 |  | 
Cc1ncccc1C(=O)N[C@H]1CCc2cc(-n3c(-c4cccnc4N)nc4c(C)cc(-n5cccn5)nc43)ccc21 [Compound 100] | 17.2 | 24.9 |  | 
COc1ncc(C(=O)N[C@H]2CCc3cc(-n4c(-c5cccnc5N)nc5ccc(-n6cccn6)nc54)ccc32)cc1F [Compound 162] | 9.12 | 37.8 |  | 
Cc1cnc(C(=O)N[C@H]2CCc3cc(-n4c(-c5cccnc5N)nc5ccc(-n6cccn6)nc54)ccc32)cn1 [Compound 185] | 65.3 | 1540 |  | 
Cc1cnc2ccc(C(=O)N[C@H]3CCc4cc(-n5c(-c6cccnc6N)nc6ccc(-n7cccn7)nc65)ccc43)cn12 [Compound 71] | 4.63 | 69.7 |  | 
Cc1csc(-c2ccc3nc(-c4cccnc4N)n(-c4ccc5c(c4)CC[C@@H]5n4ccnn4)c3n2)n1 [Compound 316] | 16.9 | 201 |  | 
CN(C(=O)N[C@H]1CCc2cc(-n3c(-c4cccnc4N)nc4ccc(-n5cccn5)nc43)ccc21)c1ccccc1 [Compound 132, (S)-3-(5-(2-(2-aminopyridin-3-yl)-5-(1H-pyrazol-1-yl)-3H-imidazo[4,5-b]pyridin-3-yl)-2,3-dihydro-1H-inden-1-yl)-1-methyl-1-phenylurea] | > 1000 | 2550 |  | 
Nc1ncccc1-c1nc2ccc(-n3cccn3)nc2n1-c1ccc2c(c1)CC[C@@H]2NCc1ccccn1 [Compound 131] | 42.5 | 785 |  | 
